Converted amounts (≈) assume the structure as drawn. The source made the active and inactive calls. No cut-off for these calls is given here.
Assays:
PC-3 [1] = assay: Antiproliferative activity against human PC3 cells assessed as cell viability after 96 hrs by CyQuant staining-based assay; assay type: functional; conditions: PC-3, 96 h
PC-3 [2] = assay: Cellular uptake in human PC3 cells at 1000 nM; assay type: ADME, cell-based; conditions: pc-3, 1 µM
[3] = Antiproliferative activity against mouse KPR cells assessed as cell viability after 96 hrs by CyQuant staining-based assay; assay type: functional
[4] = Antiproliferative activity against mouse B16F10 cells assessed as cell viability after 96 hrs by CyQuant staining-based assay; assay type: functional; conditions: B16-F10, 96 h
[5] = Dissociation constant, pKa of the compound; assay type: physicochemical
[6] = Ratio of drug level in retina to plasma of Sprague-Dawley rat at 30 mg/kg, po qd for 2 days measured 6.5 hrs after last dose
PC-3 [7] = assay: Cellular uptake in human PC3 cells at 200 nM; assay type: ADME, cell-based; conditions: pc-3, 0.2 µM
[8] = Fraction unbound in mouse plasma at 5 uM by LC-MS/MS analysis; assay type: ADME, cell-free
A2780 [9] = assay: Antitumor activity against human A2780 cells xenografted in NCR nude mouse assessed as tumor regression at 100 mg/kg, po qd measured for 5 to 15 days; assay type: functional, organism-based; design: dose 100 mg/kg
[10] = Half life in NCR nude mouse at 5 mg/kg, iv; assay type: ADME, organism-based; design: dose 5 mg/kg, route intravenous; conditions: in vivo
[11] = Clearance in NCR nude mouse at 5 mg/kg, iv; assay type: ADME, organism-based; design: dose 5 mg/kg, route intravenous; conditions: in vivo
[12] = Inhibition of C-terminal His-6-tagged dog NAMPT expressed in Escherichia coli (DE3)-RIL cells after 30 mins by mass spectrometry-based analysis; design: species or system Canis lupus familiaris
[13] = Volume of distribution at steady state in NCR nude mouse at 5 mg/kg, iv; assay type: ADME, organism-based; design: dose 5 mg/kg, route intravenous; conditions: in vivo, read-out: Vdss
Tumour = assay: Reduction of NAD level in tumor of NCR nude mouse xenografted with human A2780 cells at 100 mg/kg, po qd measured after day-5 dose for 1 to 24 hrs relative to vehicle-treated control; assay type: functional, organism-based; design: dose 100 mg/kg
[14] = Tmax in NCR nude mouse at 100 mg/kg, po; assay type: ADME, organism-based; design: dose 100 mg/kg, route oral; conditions: in vivo
[15] = Cytotoxicity against African green monkey COS7 cells assessed as cell viability after 96 hrs by CyQuant staining-based assay; conditions: Chlorocebus aethiops, COS-7, 96 h
[16] = Antiproliferative activity against dog DH82 cells assessed as cell viability after 96 hrs by CyQuant staining-based assay; assay type: functional; conditions: Canis lupus familiaris, DH82, 96 h
[17] = Drug uptake in Sprague-Dawley rat retina at 30 mg/kg, po single dose measured 1 hr after dose
[18] = Half life in NCR nude mouse at 100 mg/kg, po; assay type: ADME, organism-based; design: dose 100 mg/kg, route oral; conditions: in vivo
[19] = biological target: T1, Nicotinamide phosphoribosyltransferase (Mus musculus, UniProt Q99KQ4); assay: Inhibition of NAMPT in mouse cells assessed as reduction in NAD level after 48 hrs by mass spectrometry; assay type: cell-based
[20] = Antiproliferative activity against mouse KPP cells assessed as cell viability after 96 hrs by CyQuant staining-based assay; assay type: functional
Mus musculus = assay: Toxicity in NCR nude mouse xenografted with human A2780 cells assessed as decrease in body weight at 100 mg/kg, po qd measured after 5 days; assay type: organism-based; design: dose 100 mg/kg, route oral; conditions: in vivo, 120 h
[21] = Aqueous solubility of the compound in PBS at pH 7.2 by LC/CLND analysis; assay type: physicochemical
[22] = Cellular uptake in mouse KPP cells at 1000 nM; assay type: ADME, cell-based; conditions: 1 µM
HCT-116 = assay: Antiproliferative activity against human HCT116 cells assessed as cell viability after 96 hrs by CyQuant staining-based assay; assay type: functional; conditions: HCT-116, 96 h
[23] = Antiproliferative activity against dog A72 cells assessed as cell viability after 96 hrs by CyQuant staining-based assay; assay type: functional; conditions: Canis lupus familiaris, A-72, 96 h
[24] = Cmax in NCR nude mouse at 100 mg/kg, po; assay type: ADME, organism-based; design: dose 100 mg/kg, route oral; conditions: in vivo
[25] = Cytotoxicity against African green monkey COS1 cells assessed as cell viability after 96 hrs by CyQuant staining-based assay; conditions: Chlorocebus aethiops, COS-1, 96 h
A2780 [26] = assay: Antiproliferative activity against human A2780 cells assessed as cell viability after 72 hrs by SRB assay in presence of nitotinamide mononucleotide; assay type: functional, cell-based
A2780 [27] = assay: Antiproliferative activity against human A2780 cells assessed as cell viability after 72 hrs by SRB assay; assay type: functional, cell-based; conditions: A2780, 72 h
[28] = biological target: T1, Nicotinamide phosphoribosyltransferase; assay: Inhibition of mouse NAMPT after 30 mins by mass spectrometry-based analysis
[29] = Antiproliferative activity against human MIAPaCa2 cells assessed as cell viability after 96 hrs by CyQuant staining-based assay; assay type: functional; conditions: MIA PaCa-2, 96 h
[30] = Inhibition of C-terminal His-6-tagged cynomolgus monkey NAMPT expressed in Escherichia coli (DE3)-RIL cells after 30 mins by mass spectrometry-based analysis; design: species or system Macaca fascicularis
[31] = Octanol-PBS buffer distribution coefficient, log D of the compound at pH 7.4 by shake flask method; assay type: physicochemical
[32] = Drug uptake in Sprague-Dawley rat retina at 30 mg/kg, po single dose measured 6.5 hrs after dose
[33] = Cytotoxicity against rhesus monkey RF/6A cells assessed as cell viability after 96 hrs by CyQuant staining-based assay; conditions: Macaca mulatta
[34] = Antiproliferative activity against human HT1080 cells assessed as cell viability after 96 hrs by CyQuant staining-based assay; assay type: functional; conditions: HT-1080, 96 h
[35] = Cellular uptake in mouse KPP cells at 200 nM; assay type: ADME, cell-based; conditions: 0.2 µM
[36] = Antiproliferative activity against human Calu6 cells assessed as cell viability after 96 hrs by CyQuant staining-based assay; assay type: functional; conditions: Calu-6, 96 h
[37] = Ratio of drug level in retina to plasma of Sprague-Dawley rat at 30 mg/kg, po qd for 2 days measured 1 hr after last dose
[38] = Antiproliferative activity against dog D17 cells assessed as cell viability after 96 hrs by CyQuant staining-based assay; assay type: functional; conditions: Canis lupus familiaris, D17, 96 h
[39] = biological target: Nicotinamide phosphoribosyltransferase (Rattus norvegicus, UniProt Q80Z29); assay: Inhibition of rat NAMPT after 30 mins by mass spectrometry-based analysis
[40] = Apparent permeability from apical to basolateral side in MDCK cells at 10 uM by LC-MS/MS analysis; assay type: ADME, cell-based, Canis lupus familiaris; conditions: dog

T1 sequence (Q99KQ4 whole entry): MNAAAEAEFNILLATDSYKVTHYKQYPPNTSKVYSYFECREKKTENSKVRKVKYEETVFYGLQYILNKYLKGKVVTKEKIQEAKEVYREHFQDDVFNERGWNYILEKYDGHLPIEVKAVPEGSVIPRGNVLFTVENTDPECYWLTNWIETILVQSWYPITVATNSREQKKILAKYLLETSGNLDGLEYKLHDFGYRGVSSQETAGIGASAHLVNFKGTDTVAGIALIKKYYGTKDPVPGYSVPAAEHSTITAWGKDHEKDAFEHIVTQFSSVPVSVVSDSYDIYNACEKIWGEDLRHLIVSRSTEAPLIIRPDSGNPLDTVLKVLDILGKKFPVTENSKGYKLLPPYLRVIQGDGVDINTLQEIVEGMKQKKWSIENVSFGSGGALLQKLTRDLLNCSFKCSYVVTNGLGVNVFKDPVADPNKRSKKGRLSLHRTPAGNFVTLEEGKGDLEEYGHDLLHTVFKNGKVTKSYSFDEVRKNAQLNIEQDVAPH
Sequence of Nicotinamide phosphoribosyltransferase (Rattus norvegicus, UniProt Q80Z29) (Q80Z29 whole entry): as the sequence (Q99KQ4 whole entry) above, with T335S, N439T, I484M counted along it

Compound: O=C(NCc1ccc(S(=O)(=O)c2cccc(C(F)(F)F)c2)cc1)c1cnc2[nH]ncc2c1
- IC50 (PC-3 [1]): 9 nM
- Drug uptake (PC-3 [2]): 54 nM
- IC50 [3]: > 1000 nM
- IC50 [4]: > 1000 nM
- pKa [5]: < 2
- Kp at 6.5 h [6]: 0.093
- Drug uptake (PC-3 [7]): 10 nM
- fraction unbound at 5 µM [8]: 0.013
- Activity (A2780 [9]): Active
- half-life [10]: 2.6 h
- clearance [11]: 3.3 mL/min/kg
- IC50 [12]: 22 nM
- Vd [13]: 0.45 L/kg
- Activity (Tumour): Active
- Tmax [14]: 0.25 h
- IC50 [15]: 863 nM
- IC50 [16]: 41 nM
- concentration at 1 h [17]: 940 nM
- half-life [18]: 3.4 h
- EC50 [19]: 70 nM
- IC50 [20]: 775 nM
- Activity (Mus musculus): Toxic
- solubility [21]: 1.4 µM (≈ 0.645 µg/mL)
- Drug uptake [22]: 74 nM
- IC50 (HCT-116): 8 nM
- IC50 [23]: 23 nM
- Cmax [24]: 53000 nM
- IC50 [25]: 501 nM
- inhibition (A2780 [26]): inactive
- IC50 (A2780 [27]): 4.3 nM
- IC50 [28]: 59 nM
- IC50 [29]: 30 nM
- IC50 [30]: 73 nM
- logD [31]: 3.4
- concentration at 6.5 h [32]: 680 nM
- IC50 [33]: 386 nM
- IC50 [34]: 9 nM
- Drug uptake [35]: 12 nM
- IC50 [36]: 21 nM
- Kp at 1 h [37]: 0.071
- IC50 [38]: 98 nM
- IC50 [39]: 35 nM
- Papp A→B at 10 µM [40]: 11 ×10⁻⁶ cm/s
